Measured values published in patent publication US9944602B2, “Piperidinone herbicides” (E. I. DU PONT DE NEMOURS AND COMPANY, priority 2014, dated 2018).

How the values were obtained:
Type in all cases: in vivo
[1] = system: blackgrass (Alopecurus myosuroides); experiment: Test A postemergence blackgrass; conditions: Alopecurus myosuroides, post-emergence, 240 h, 0 to 100 scale, 0 is no effect, 100 is complete control, read-out: Plant response rating, Blackgrass; for pest or weed control at 125 g/ha: 125 g ai/ha; for pest or weed control at 500 g/ha: 500 g ai/ha
Outline: (§1)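 Scores reflect visual comparison with untreated controls after ~10 d in the greenhouse (0 none, 100 complete control). Treatment was a surfactant-containing non-phytotoxic solvent formulation, sprayed onto soil after seeding or onto seedlings at one to two leaves, 2–10 cm tall.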

[2] = system: barnyardgrass (Echinochloa crus-galli); experiment: Test B flooded paddy test barnyardgrass; conditions: Echinochloa crus-galli, Table B, Flood, 250 g ai/ha, scale 0 to 100, read-out: Plant response rating
Outline: (§2)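 Visual injury relative to controls was scored after 13 to 15 d in the greenhouse. Treatment was by adding compound straight to flood water 3 cm deep, maintained for the whole test, on plants at the 2-leaf stage.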

[3] = system: ducksalad (Heteranthera limosa); experiment: Test B flooded paddy test ducksalad; conditions: Heteranthera limosa, Table B, Flood, 250 g ai/ha, scale 0 to 100, read-out: Plant response rating
Outline: as §2

[4] = system: ryegrass, Italian (Italian ryegrass, Lolium multiflorum); experiment: Test A preemergence ryegrass, Italian; conditions: Lolium multiflorum, pre-emergence, 240 h, 0 to 100 scale, 0 no effect, 100 complete control, read-out: Ryegrass, Italian plant response rating; for pest or weed control at 125 g/ha: 125 g ai/ha; for pest or weed control at 500 g/ha: 500 g ai/ha
Outline: as §1

[5] = system: foxtail, giant (giant foxtail, Setaria faberii); experiment: Test A preemergence foxtail, giant; conditions: Setaria faberi, pre-emergence, 240 h, 0 to 100 scale, 0 no effect, 100 complete control, read-out: Foxtail, Giant plant response rating; for pest or weed control at 125 g/ha: 125 g ai/ha; for pest or weed control at 500 g/ha: 500 g ai/ha
Outline: as §1

corn (Zea mays) = experiment: Test A postemergence corn; conditions: Zea mays, post-emergence, 240 h, 0 to 100 scale, 0 is no effect, 100 is complete control; for Corn plant response rating (crop injury, 0 = no effect, 100 = complete kill) at 125 g/ha: 125 g ai/ha; for Corn plant response rating (crop injury, 0 = no effect, 100 = complete kill) at 500 g/ha: 500 g ai/ha
Outline: as §1

[6] = system: ryegrass, Italian (Italian ryegrass, Lolium multiflorum); experiment: Test A postemergence ryegrass, Italian; conditions: Lolium multiflorum, post-emergence, 240 h, 0 to 100 scale, 0 is no effect, 100 is complete control, read-out: Plant response rating, Ryegrass, Italian; for pest or weed control at 125 g/ha: 125 g ai/ha; for pest or weed control at 500 g/ha: 500 g ai/ha
Outline: as §1

[7] = system: ragweed (common ragweed, Ambrosia elatior); experiment: Test A preemergence ragweed; conditions: Ambrosia artemisiifolia, pre-emergence, 240 h, 0 to 100 scale, 0 no effect, 100 complete control, read-out: Ragweed plant response rating; for pest or weed control at 125 g/ha: 125 g ai/ha; for pest or weed control at 500 g/ha: 500 g ai/ha
Outline: as §1

rice (Oryza sativa) = experiment: Test B flooded paddy test rice; conditions: Oryza sativa, Table B, Flood, 250 g ai/ha, scale 0 to 100, read-out: Plant response rating
Outline: as §2

[8] = system: barnyardgrass (Echinochloa crus-galli); experiment: Test A preemergence barnyardgrass; conditions: Echinochloa crus-galli, pre-emergence, 240 h, 0 to 100 scale, 0 no effect, 100 complete control, read-out: Barnyardgrass plant response rating; for pest or weed control at 125 g/ha: 125 g ai/ha; for pest or weed control at 500 g/ha: 500 g ai/ha
Outline: as §1

[9] = system: galium (catchweed bedstraw, Galium aparine); experiment: Test A postemergence galium; conditions: Galium, post-emergence, 240 h, 0 to 100 scale, 0 is no effect, 100 is complete control, read-out: Plant response rating, Galium; for pest or weed control at 125 g/ha: 125 g ai/ha; for pest or weed control at 500 g/ha: 500 g ai/ha
Outline: as §1

[10] = system: wheat (Triticum aestivum); experiment: Test A postemergence wheat; conditions: Triticum aestivum, post-emergence, 240 h, 0 to 100 scale, 0 is no effect, 100 is complete control, read-out: Plant response rating, Wheat; for plant injury at 125 g/ha: 125 g ai/ha; for plant injury at 500 g/ha: 500 g ai/ha
Outline: as §1

[11] = system: ragweed (common ragweed, Ambrosia elatior); experiment: Test A postemergence ragweed; conditions: Ambrosia artemisiifolia, post-emergence, 240 h, 0 to 100 scale, 0 is no effect, 100 is complete control, read-out: Plant response rating, Ragweed; for pest or weed control at 125 g/ha: 125 g ai/ha; for pest or weed control at 500 g/ha: 500 g ai/ha
Outline: as §1

[12] = system: sedge, umbrella (small-flower umbrella sedge, Cyperus difformis); experiment: Test B flooded paddy test sedge, umbrella; conditions: Cyperus difformis, Table B, Flood, 250 g ai/ha, scale 0 to 100, read-out: Plant response rating
Outline: as §2

[13] = system: foxtail, giant (giant foxtail, Setaria faberii); experiment: Test A postemergence foxtail, giant; conditions: Setaria faberi, post-emergence, 240 h, 0 to 100 scale, 0 is no effect, 100 is complete control, read-out: Plant response rating, Foxtail, Giant; for pest or weed control at 125 g/ha: 125 g ai/ha; for pest or weed control at 500 g/ha: 500 g ai/ha
Outline: as §1

kochia (Kochia scoparia) [14] = experiment: Test A preemergence kochia; conditions: Bassia scoparia, pre-emergence, 240 h, 0 to 100 scale, 0 no effect, 100 complete control, read-out: Kochia plant response rating; for pest or weed control at 125 g/ha: 125 g ai/ha; for pest or weed control at 500 g/ha: 500 g ai/ha
Outline: as §1

[15] = system: barnyardgrass (Echinochloa crus-galli); experiment: Test A postemergence barnyardgrass; conditions: Echinochloa crus-galli, post-emergence, 240 h, 0 to 100 scale, 0 is no effect, 100 is complete control, read-out: Plant response rating, Barnyardgrass; for pest or weed control at 125 g/ha: 125 g ai/ha; for pest or weed control at 500 g/ha: 500 g ai/ha
Outline: as §1

[16] = system: pigweed (Amaranthus retroflexus); experiment: Test A preemergence pigweed; conditions: Amaranthus retroflexus, pre-emergence, 240 h, 0 to 100 scale, 0 no effect, 100 complete control, read-out: Pigweed plant response rating; for pest or weed control at 125 g/ha: 125 g ai/ha; for pest or weed control at 500 g/ha: 500 g ai/ha
Outline: as §1

[17] = system: pigweed (Amaranthus retroflexus); experiment: Test A postemergence pigweed; conditions: Amaranthus retroflexus, post-emergence, 240 h, 0 to 100 scale, 0 is no effect, 100 is complete control, read-out: Plant response rating, Pigweed; for pest or weed control at 125 g/ha: 125 g ai/ha; for pest or weed control at 500 g/ha: 500 g ai/ha
Outline: as §1

kochia (Kochia scoparia) [18] = experiment: Test A postemergence kochia; conditions: Bassia scoparia, post-emergence, 240 h, 0 to 100 scale, 0 is no effect, 100 is complete control, read-out: Plant response rating, Kochia; for pest or weed control at 125 g/ha: 125 g ai/ha; for pest or weed control at 500 g/ha: 500 g ai/ha
Outline: as §1

`O=C1NCC[C@H](c2cccc(Cl)c2)[C@H]1C(=O)Nc1cccc(F)c1F` [Compound 42, (3R,4S)-4-(3-chlorophenyl)-N-(2,3-difluorophenyl)-2-oxo-3-piperidinecarboxamide] showed a pest or weed control at 125 g/ha [1] of 40%, a pest or weed control at 500 g/ha [1] of 70% and a pest or weed control at 250 g/ha [2] of 75%. For the same molecule, the pest or weed control at 250 g/ha [3] was 95%, the pest or weed control at 125 g/ha [4] was 40% and the pest or weed control at 500 g/ha [4] was 60%. It also gave a pest or weed control at 125 g/ha [5] of 90%, a pest or weed control at 500 g/ha [5] of 90% and a Corn plant response rating (crop injury, 0 = no effect, 100 = complete kill) at 125 g/ha (corn (Zea mays)) of 10%. It also gave a Corn plant response rating (crop injury, 0 = no effect, 100 = complete kill) at 500 g/ha (corn (Zea mays)) of 60%, a pest or weed control at 125 g/ha [6] of 40% and a pest or weed control at 500 g/ha [6] of 50%. The pest or weed control at 125 g/ha [7] was 0%, the pest or weed control at 500 g/ha [7] was 0% and the plant injury at 250 g/ha (rice (Oryza sativa)) was 0%. For the same molecule, the pest or weed control at 125 g/ha [8] was 90%, the pest or weed control at 500 g/ha [8] was 90% and the pest or weed control at 125 g/ha [9] was 0%. It also gave a pest or weed control at 500 g/ha [9] of 10%, a plant injury at 125 g/ha [10] of 0% and a plant injury at 500 g/ha [10] of 60%. The pest or weed control at 125 g/ha [11] was 0%, the pest or weed control at 500 g/ha [11] was 0% and the pest or weed control at 250 g/ha [12] was 0%. The pest or weed control at 125 g/ha [13] was 90%, the pest or weed control at 500 g/ha [13] was 90% and the pest or weed control at 125 g/ha (kochia (Kochia scoparia) [14]) was 0%. The pest or weed control at 500 g/ha (kochia (Kochia scoparia) [14]) was 0%, the pest or weed control at 125 g/ha [15] was 80% and the pest or weed control at 500 g/ha [15] was 90%. For the same molecule, the pest or weed control at 125 g/ha [16] was 0%, the pest or weed control at 500 g/ha [16] was 10% and the pest or weed control at 125 g/ha [17] was 0%. The pest or weed control at 500 g/ha [17] was 0%, the pest or weed control at 125 g/ha (kochia (Kochia scoparia) [18]) was 0% and the pest or weed control at 500 g/ha (kochia (Kochia scoparia) [18]) was 30%.

Molecule `CN1CC[C@H](c2ccc(F)cc2)[C@@H](C(=O)Nc2cccc(F)c2F)C1=O` [Compound 52, (3S,4S)—N-(2,3-difluorophenyl)-4-(4-fluorophenyl)-1-methyl-2-oxo-3-piperidinecarboxamide] has a pest or weed control at 125 g/ha [1] of 0%, a pest or weed control at 500 g/ha [1] of 0% and a pest or weed control at 250 g/ha [2] of 30%. The pest or weed control at 250 g/ha [3] was 100%, the pest or weed control at 125 g/ha [4] was 20% and the pest or weed control at 500 g/ha [4] was 30%. The pest or weed control at 125 g/ha [5] was 90%, the pest or weed control at 500 g/ha [5] was 90% and the Corn plant response rating (crop injury, 0 = no effect, 100 = complete kill) at 125 g/ha (corn (Zea mays)) was 0%. For the same molecule, the Corn plant response rating (crop injury, 0 = no effect, 100 = complete kill) at 500 g/ha (corn (Zea mays)) was 10%, the pest or weed control at 125 g/ha [6] was 0% and the pest or weed control at 500 g/ha [6] was 20%. The pest or weed control at 125 g/ha [7] was 20%, the pest or weed control at 500 g/ha [7] was 30% and the plant injury at 250 g/ha (rice (Oryza sativa)) was 0%. For the same molecule, the pest or weed control at 125 g/ha [8] was 90%, the pest or weed control at 500 g/ha [8] was 90% and the pest or weed control at 125 g/ha [9] was 0%. For the same molecule, the pest or weed control at 500 g/ha [9] was 50%, the plant injury at 125 g/ha [10] was 0% and the plant injury at 500 g/ha [10] was 20%. For the same molecule, the pest or weed control at 125 g/ha [11] was 0%, the pest or weed control at 500 g/ha [11] was 0% and the pest or weed control at 250 g/ha [12] was 0%. For the same molecule, the pest or weed control at 125 g/ha [13] was 80%, the pest or weed control at 500 g/ha [13] was 80% and the pest or weed control at 125 g/ha (kochia (Kochia scoparia) [14]) was 0%. The pest or weed control at 500 g/ha (kochia (Kochia scoparia) [14]) was 20%, the pest or weed control at 125 g/ha [15] was 70% and the pest or weed control at 500 g/ha [15] was 90%. It also gave a pest or weed control at 125 g/ha [16] of 30%, a pest or weed control at 500 g/ha [16] of 80% and a pest or weed control at 125 g/ha [17] of 0%. It also gave a pest or weed control at 500 g/ha [17] of 0%, a pest or weed control at 125 g/ha (kochia (Kochia scoparia) [18]) of 0% and a pest or weed control at 500 g/ha (kochia (Kochia scoparia) [18]) of 20%.
